Measurements: ChEMBL document CHEMBL1201862, “PubChem BioAssay data set” (2004)
Activity calls are given as the source filed them.

How the values were obtained:
[1] = target: T1, High affinity choline transporter 1 (Homo sapiens, UniProt Q9GZV3); assay: human choline transporter potentiators, potency – cell-based, 10-point CRC, membrane potential dye, dose response (AID 602376); format: functional
T1 sequence (Q9GZV3 whole entry): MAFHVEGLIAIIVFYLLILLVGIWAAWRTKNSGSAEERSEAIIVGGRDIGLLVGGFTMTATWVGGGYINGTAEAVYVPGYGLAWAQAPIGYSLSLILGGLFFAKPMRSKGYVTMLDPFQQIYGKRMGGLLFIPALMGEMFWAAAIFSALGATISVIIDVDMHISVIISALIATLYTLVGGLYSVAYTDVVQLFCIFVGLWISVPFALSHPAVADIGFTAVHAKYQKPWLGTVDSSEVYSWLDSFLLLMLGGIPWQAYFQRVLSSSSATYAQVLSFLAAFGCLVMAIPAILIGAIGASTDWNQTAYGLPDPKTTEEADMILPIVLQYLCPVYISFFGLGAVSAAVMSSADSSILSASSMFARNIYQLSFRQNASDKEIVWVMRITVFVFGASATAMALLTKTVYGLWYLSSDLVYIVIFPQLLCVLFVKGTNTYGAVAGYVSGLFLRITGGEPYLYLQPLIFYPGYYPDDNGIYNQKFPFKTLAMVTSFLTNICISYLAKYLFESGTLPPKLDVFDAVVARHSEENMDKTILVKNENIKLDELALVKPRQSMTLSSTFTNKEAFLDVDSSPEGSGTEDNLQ

[2] = target: T2, DNA dC->dU-editing enzyme APOBEC-3G (Homo sapiens, UniProt Q9HC16); assay: inhibition of APOBEC3G ssDNA deamination – biochemical, fluorescence, single-stranded DNA substrate, SAR follow-up (AID 602136); format: functional; details: read-out: IC50_Mean
[3] = target: T3, DNA dC->dU-editing enzyme APOBEC-3A (Homo sapiens, UniProt P31941); assay: SAR analysis of small molecule inhibitors of APOBEC3A DNA Deaminase via a fluorescence-based single-stranded DNA deaminase assay - Set 2.; format: functional; details: read-out: IC50_Mean
[4] = target: Low molecular weight phosphotyrosine protein phosphatase (Homo sapiens, UniProt P24666); format: functional; details: read-out: IC50_Mean;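 also: Dose-response confirmation assay measuring inhibition of LMPTP enzyme activity by fluorescence intensity read-out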
[5] = target: T3, DNA dC->dU-editing enzyme APOBEC-3A; assay: SAR analysis of small molecule inhibitors of APOBEC3A DNA Deaminase via a fluorescence-based single-stranded DNA deaminase assay.; format: functional; details: read-out: IC50_Mean
[6] = target: T2, DNA dC->dU-editing enzyme APOBEC-3G; assay: SAR analysis of small molecule inhibitors of APOBEC3G DNA Deaminase via a fluorescence-based single-stranded DNA deaminase assay - Set 2.; format: functional; details: read-out: IC50_Mean
Estrogen receptor beta = Estrogen receptor beta (Homo sapiens, UniProt Q92731); assay: blockers of SRC-3 recruitment to ERβ – biochemical, ELISA, streptavidin-HRP readout, orthogonal assay, confirmation (AID 1060)
[7] = target: T2, DNA dC->dU-editing enzyme APOBEC-3G; format: functional
[8] = target: T3, DNA dC->dU-editing enzyme APOBEC-3A; assay: Dose Response confirmation of small molecule APOBEC3A DNA Deaminase Inhibitors via a fluorescence-based single-stranded DNA deaminase assay. [Related pubchem assays (depositor defined):AID493011, AID493024]; format: functional
[9] = A Cell Based Secondary Assay to Explore Cytotoxicity in HepG2 Cells of Compounds that Modulate Mycobacterium tuberculosis in Media Containing Glycerol versus Media without Glycerol (2).; format: functional
[10] = Vero cell cytotoxicity, cytotoxicity control for M. tuberculosis inhibitor project, purified and synthesized samples, set 3 (AID 504684); format: functional
[11] = target: T4, Neuropeptides B/W receptor type 1 (Homo sapiens, UniProt P48145); assay: human NPBW1 receptor blockade, IC50 – cell-based, fluorescence, dose response, set 6, late-stage follow-up (AID 588583); format: functional
T4 sequence (P48145 whole entry): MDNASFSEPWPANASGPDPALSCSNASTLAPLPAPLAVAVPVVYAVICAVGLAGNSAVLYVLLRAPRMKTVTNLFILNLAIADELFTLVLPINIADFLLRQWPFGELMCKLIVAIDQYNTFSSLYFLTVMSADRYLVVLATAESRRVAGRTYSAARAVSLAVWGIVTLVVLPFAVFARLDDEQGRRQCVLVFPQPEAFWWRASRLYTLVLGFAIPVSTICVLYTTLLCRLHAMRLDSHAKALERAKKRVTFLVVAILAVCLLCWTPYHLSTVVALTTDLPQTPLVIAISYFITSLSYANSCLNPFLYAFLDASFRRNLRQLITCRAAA

[12] = target: Melanin-concentrating hormone receptor 1 (Homo sapiens, UniProt Q99705); assay: Late-stage fluorescence-based counterscreen for antagonists of the G-protein coupled receptor 7 (GPR7): cell-based dose response assay to identify antagonists of the melanin-concentrating hormone receptor 1 (MCHR1) Set 6.; format: functional
[13] = Counterscreen for antagonists of the orexin 1 receptor (OX1R; HCRTR1): Fluorescence-based cell-based high throughput dose response assay to identify antagonists of the parental CHO cell line. [Related pubchem assays (depositor defined):AID434989, AID435008, AID463079, AID485270, AID492963, AID492964, AID492965, AID493232, AID504699, AID504701]; format: functional
BJ [14] = assay: BJ-TERT fibroblast viability loss – cell-based, RAS-independent, luminescence, dose response (AID 1933); format: functional; details: Homo sapiens
BJ [15] = assay: BJ-TERT-LT-ST fibroblast viability loss – cell-based, RAS-independent, luminescence, dose response (AID 1935); format: functional; details: Homo sapiens;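 also: BJ fibroblasts immortalized with TERT plus LT and ST oncogenes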
[16] = viability loss in Vero cells – cytotoxicity control for Vif-APOBEC3G degradation inhibitor project, dose response (AID 1117358); format: functional; details: Vero
[17] = target: T5, Orexin/Hypocretin receptor type 1 (Homo sapiens, UniProt O43613); assay: Homogeneous Time Resolved Fluorescence (HTRF)-based cell-based high throughput dose response assay for antagonists of the orexin 1 receptor (OX1R; HCRTR1). [Related pubchem assays (depositor defined):AID434989, AID435008, AID463079, AID485270, AID492963, AID492964, AID492965, AID493232, AID504717, AID504718]; format: functional
Orexin receptor type 2 [18] = target: T6, Orexin receptor type 2 (Homo sapiens, UniProt O43614); assay: Counterscreen assay for antagonists of the orexin 1 receptor (OX1R; HCRTR1): Fluorescence-based cell-based dose response assay for antagonists of the orexin 2 receptor (OX2R; HCRTR2), run by assay provider.; format: functional
[19] = DRD fibroblast viability loss – cell-based, non-viral oncogenic, luminescence, dose response (AID 1934); format: functional; details: Homo sapiens
BJ [20] = assay: cells; format: functional, cell-based; details: Homo sapiens
Orexin receptor type 2 [21] = target: T6, Orexin receptor type 2; assay: Counterscreen assay for antagonists of the orexin 1 receptor (OX1R; HCRTR1): Homogeneous Time Resolved Fluorescence (HTRF)-based cell-based dose response assay for antagonists of the orexin 2 receptor (OX2R; HCRTR2), run by assay provider.; format: functional
[22] = target: T5, Orexin/Hypocretin receptor type 1; assay: Fluorescence-based cell-based high throughput dose response assay for antagonists of the orexin 1 receptor (OX1R; HCRTR1). [Related pubchem assays (depositor defined):AID434989, AID435008, AID463079, AID485270, AID492963, AID492964, AID492965, AID493232, AID504717, AID504718]; format: functional
CHO-K1 = assay: Counterscreen for antagonists of the orexin 1 receptor (OX1R; HCRTR1): Homogeneous time resolved fluorescence (HTRF)-based cell-based dose response assay to identify antagonists of the parental CHO-K1 cell line. [Related pubchem assays (depositor defined):AID434989, AID435008, AID463079, AID485270, AID492963, AID492964, AID492965, AID493232, AID504699, AID504701]; format: functional; details: Cricetulus griseus;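 also: potency for inhibition of ATP-stimulated IP1 production as antagonists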
[23] = target: Cyclin-dependent kinase 8 (Homo sapiens, UniProt P49336); assay: Navigating the Kinome. Panel member name: CDK8; format: functional
[24] = target: G protein-coupled receptor kinase 5 (Homo sapiens, UniProt P34947); assay: Navigating the Kinome. Panel member name: GPRK5; format: functional
[25] = target: Serine/threonine-protein kinase pim-1 (Homo sapiens, UniProt P11309); format: functional
[26] = target: Homeodomain-interacting protein kinase 2 (Homo sapiens, UniProt Q9H2X6); format: functional;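 also: measured within a kinome-wide kinase profiling panel, HIPK2 being one panel member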
[27] = target: T7, Interleukin-1 receptor-associated kinase 4 (Homo sapiens, UniProt Q9NWZ3); format: functional
T7 sequence (Q9NWZ3 whole entry): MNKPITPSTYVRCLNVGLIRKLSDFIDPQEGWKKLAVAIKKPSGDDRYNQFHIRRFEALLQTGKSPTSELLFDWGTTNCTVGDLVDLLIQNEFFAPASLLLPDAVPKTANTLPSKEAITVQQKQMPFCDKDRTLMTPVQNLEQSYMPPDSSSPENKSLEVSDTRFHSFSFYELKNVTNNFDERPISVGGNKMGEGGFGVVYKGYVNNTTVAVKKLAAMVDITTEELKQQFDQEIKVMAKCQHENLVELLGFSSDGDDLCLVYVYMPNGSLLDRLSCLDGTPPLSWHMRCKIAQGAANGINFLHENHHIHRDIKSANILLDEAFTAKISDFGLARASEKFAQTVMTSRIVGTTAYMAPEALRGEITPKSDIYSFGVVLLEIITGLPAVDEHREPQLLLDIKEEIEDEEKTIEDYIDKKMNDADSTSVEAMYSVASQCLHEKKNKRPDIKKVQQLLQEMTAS

[28] = target: Glycogen synthase kinase-3 beta (Homo sapiens, UniProt P49841); format: functional;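 also: value comes from a broad kinome profiling panel, with GSK3B as the panel member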
[29] = target: Dual specificity protein kinase CLK4 (Homo sapiens, UniProt Q9HAZ1); format: functional
[30] = target: Mitogen-activated protein kinase kinase kinase kinase 4 (Homo sapiens, UniProt O95819); format: functional
[31] = target: MAP kinase-interacting serine/threonine-protein kinase 2 (Homo sapiens, UniProt Q9HBH9); format: functional
[32] = target: cAMP-dependent protein kinase catalytic subunit alpha (Homo sapiens, UniProt P17612); format: functional
[33] = target: Cell division cycle 7-related protein kinase (Homo sapiens, UniProt O00311); format: functional;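 also: value obtained from a kinome-wide kinase panel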
[34] = target: Sphingosine 1-phosphate receptor 2 (Homo sapiens, UniProt O95136); assay: activation of human S1P2 receptor – cell-based, fluorescence, set 2, counter-screen for S1P4 agonist project, late-stage follow-up (AID 504873); format: functional
[35] = target: Sphingosine 1-phosphate receptor 3 (Homo sapiens, UniProt Q99500); assay: Late-stage fluorescence-based dose-response cell-based counterscreen assay to identify agonists of the Sphingosine 1-Phosphate Receptor 4 (S1P4): Sphingosine 1-Phosphate Receptor 3 (S1P3) agonist assay Set 2.; format: functional
[36] = target: Sphingosine 1-phosphate receptor 5 (Homo sapiens, UniProt Q9H228); assay: activation of human S1P5 receptor – cell-based, fluorescence, set 2, counter-screen for S1P4 agonist project, late-stage follow-up (AID 504867); format: functional
[37] = target: Sphingosine 1-phosphate receptor 1 (Homo sapiens, UniProt P21453); assay: Late-stage fluorescence-based dose-response cell-based counterscreen assay to identify agonists of the Sphingosine 1-Phosphate Receptor 4 (S1P4): Sphingosine 1-Phosphate Receptor 1 (S1P1) agonist assay Set 2.; format: functional
[38] = target: Cyclin-dependent kinase 2 (Homo sapiens, UniProt P24941); format: functional;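 also: CDK2 measured as one member of a broad kinome profiling panel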

T3 sequence (P31941 whole entry): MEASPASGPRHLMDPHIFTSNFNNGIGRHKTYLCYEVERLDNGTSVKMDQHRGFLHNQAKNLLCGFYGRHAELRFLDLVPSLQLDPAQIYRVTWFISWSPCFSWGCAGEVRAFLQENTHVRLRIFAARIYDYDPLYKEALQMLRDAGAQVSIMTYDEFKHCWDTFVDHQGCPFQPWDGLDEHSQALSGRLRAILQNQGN
T2 sequence (Q9HC16 whole entry): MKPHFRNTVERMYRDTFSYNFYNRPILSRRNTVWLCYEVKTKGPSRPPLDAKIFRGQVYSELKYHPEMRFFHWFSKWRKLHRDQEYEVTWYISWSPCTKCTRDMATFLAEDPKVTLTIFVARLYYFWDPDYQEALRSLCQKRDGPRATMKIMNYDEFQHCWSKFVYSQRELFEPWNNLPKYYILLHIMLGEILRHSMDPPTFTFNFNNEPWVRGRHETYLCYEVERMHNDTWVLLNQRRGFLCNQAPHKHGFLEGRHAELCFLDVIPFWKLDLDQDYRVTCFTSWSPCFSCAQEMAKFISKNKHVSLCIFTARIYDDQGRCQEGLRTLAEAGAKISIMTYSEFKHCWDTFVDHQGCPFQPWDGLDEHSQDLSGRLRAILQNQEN
Glycogen synthase kinase-3 beta, sequence (P49841 whole entry): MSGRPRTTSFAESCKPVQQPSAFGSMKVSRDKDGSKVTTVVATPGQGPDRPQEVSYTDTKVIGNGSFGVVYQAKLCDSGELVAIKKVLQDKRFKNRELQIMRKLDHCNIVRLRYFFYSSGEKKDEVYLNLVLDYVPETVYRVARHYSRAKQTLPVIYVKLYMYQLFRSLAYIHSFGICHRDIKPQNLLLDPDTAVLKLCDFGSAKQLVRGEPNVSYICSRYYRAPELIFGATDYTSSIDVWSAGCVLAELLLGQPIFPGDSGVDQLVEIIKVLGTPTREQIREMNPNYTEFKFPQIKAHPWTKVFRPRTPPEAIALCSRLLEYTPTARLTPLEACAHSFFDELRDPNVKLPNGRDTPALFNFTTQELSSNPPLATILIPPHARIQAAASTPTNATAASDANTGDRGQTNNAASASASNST
Serine/threonine-protein kinase pim-1, sequence (P11309 whole entry): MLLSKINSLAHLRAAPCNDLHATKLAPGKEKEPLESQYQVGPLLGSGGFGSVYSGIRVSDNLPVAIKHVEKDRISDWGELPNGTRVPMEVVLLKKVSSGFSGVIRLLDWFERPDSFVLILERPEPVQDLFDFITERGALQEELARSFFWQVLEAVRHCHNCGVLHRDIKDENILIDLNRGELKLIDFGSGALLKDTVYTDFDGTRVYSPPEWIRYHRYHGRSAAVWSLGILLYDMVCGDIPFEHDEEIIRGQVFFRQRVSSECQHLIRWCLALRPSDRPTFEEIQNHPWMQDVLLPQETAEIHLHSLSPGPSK
T5 sequence (O43613 whole entry): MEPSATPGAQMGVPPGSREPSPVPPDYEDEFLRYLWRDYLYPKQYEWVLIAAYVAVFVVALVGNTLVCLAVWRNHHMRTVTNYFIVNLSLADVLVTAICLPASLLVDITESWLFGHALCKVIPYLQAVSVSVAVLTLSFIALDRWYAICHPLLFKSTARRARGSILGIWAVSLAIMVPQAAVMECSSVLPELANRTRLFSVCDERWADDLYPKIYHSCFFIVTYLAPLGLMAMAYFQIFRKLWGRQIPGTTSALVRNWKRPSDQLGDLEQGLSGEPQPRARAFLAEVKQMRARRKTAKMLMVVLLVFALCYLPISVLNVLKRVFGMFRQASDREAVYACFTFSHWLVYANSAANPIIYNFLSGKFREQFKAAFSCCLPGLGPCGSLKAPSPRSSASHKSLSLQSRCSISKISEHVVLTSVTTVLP
Homeodomain-interacting protein kinase 2, sequence (Q9H2X6 whole entry): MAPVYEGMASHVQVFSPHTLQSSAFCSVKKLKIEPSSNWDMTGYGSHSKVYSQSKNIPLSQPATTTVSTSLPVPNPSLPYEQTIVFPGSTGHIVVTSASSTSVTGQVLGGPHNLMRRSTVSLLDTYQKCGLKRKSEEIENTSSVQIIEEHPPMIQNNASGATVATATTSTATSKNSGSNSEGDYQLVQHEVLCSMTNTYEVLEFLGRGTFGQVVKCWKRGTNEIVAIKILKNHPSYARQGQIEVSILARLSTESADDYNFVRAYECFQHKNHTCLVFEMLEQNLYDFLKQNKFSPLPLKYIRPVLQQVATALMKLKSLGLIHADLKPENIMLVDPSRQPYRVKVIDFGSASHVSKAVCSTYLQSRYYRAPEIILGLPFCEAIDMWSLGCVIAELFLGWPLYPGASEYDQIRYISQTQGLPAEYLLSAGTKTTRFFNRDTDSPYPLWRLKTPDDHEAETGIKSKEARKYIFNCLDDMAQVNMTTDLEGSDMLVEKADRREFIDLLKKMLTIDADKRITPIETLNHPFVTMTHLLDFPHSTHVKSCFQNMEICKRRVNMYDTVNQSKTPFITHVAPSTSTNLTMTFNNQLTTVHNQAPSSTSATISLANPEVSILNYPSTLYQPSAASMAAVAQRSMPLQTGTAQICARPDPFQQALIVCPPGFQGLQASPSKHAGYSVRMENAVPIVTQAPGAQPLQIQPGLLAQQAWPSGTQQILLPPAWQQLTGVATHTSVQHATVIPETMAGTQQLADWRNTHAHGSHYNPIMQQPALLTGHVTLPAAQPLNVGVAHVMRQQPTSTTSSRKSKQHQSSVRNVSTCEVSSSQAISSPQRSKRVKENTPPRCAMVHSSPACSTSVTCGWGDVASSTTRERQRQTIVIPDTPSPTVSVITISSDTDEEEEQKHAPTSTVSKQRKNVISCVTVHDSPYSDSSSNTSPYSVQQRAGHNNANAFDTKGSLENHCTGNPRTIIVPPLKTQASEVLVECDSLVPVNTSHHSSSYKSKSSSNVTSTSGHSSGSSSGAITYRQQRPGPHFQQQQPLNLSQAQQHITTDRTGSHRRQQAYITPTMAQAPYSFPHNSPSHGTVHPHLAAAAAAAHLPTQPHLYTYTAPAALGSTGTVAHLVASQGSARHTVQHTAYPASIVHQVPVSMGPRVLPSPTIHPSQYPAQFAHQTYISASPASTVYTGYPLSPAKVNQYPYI
Dual specificity protein kinase CLK4, sequence (Q9HAZ1 whole entry): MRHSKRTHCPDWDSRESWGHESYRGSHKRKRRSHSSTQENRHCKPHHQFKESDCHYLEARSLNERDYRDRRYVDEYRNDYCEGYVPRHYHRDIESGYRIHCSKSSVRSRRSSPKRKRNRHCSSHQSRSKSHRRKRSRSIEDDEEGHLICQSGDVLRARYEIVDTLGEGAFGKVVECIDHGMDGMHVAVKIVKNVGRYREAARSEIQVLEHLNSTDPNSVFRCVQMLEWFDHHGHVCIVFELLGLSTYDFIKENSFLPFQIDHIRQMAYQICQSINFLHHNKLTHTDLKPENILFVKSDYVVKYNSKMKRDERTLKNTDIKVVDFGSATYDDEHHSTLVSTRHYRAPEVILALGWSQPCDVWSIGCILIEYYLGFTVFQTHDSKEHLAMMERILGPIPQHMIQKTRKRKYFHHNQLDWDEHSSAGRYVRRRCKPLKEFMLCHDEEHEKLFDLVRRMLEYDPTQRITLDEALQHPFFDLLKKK
Cell division cycle 7-related protein kinase, sequence (O00311 whole entry): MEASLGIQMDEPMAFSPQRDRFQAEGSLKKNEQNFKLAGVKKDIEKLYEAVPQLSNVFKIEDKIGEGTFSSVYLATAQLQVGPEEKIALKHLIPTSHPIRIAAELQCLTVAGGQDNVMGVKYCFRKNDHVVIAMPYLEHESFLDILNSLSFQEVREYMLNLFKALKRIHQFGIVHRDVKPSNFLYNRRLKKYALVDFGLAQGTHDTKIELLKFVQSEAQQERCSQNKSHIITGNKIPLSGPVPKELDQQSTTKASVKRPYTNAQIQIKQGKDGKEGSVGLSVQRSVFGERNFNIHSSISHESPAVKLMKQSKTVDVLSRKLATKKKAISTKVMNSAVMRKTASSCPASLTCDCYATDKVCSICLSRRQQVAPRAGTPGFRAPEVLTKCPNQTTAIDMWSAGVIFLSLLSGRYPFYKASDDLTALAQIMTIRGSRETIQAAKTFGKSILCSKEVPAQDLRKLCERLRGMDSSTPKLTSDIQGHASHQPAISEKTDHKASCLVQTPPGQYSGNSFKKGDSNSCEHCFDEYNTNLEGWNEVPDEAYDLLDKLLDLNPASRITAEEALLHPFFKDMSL
T6 sequence (O43614 whole entry): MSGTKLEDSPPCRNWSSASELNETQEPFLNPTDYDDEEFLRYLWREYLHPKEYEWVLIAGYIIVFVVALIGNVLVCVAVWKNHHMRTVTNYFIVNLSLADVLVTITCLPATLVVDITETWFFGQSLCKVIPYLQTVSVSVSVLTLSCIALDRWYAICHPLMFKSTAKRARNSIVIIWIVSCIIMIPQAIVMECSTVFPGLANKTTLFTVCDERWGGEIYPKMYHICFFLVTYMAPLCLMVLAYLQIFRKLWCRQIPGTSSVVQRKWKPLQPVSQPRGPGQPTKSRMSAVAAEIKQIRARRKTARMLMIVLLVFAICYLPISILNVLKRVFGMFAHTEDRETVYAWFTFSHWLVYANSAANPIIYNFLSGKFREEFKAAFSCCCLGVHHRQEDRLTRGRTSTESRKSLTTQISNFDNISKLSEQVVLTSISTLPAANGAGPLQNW
MAP kinase-interacting serine/threonine-protein kinase 2, sequence (Q9HBH9 whole entry): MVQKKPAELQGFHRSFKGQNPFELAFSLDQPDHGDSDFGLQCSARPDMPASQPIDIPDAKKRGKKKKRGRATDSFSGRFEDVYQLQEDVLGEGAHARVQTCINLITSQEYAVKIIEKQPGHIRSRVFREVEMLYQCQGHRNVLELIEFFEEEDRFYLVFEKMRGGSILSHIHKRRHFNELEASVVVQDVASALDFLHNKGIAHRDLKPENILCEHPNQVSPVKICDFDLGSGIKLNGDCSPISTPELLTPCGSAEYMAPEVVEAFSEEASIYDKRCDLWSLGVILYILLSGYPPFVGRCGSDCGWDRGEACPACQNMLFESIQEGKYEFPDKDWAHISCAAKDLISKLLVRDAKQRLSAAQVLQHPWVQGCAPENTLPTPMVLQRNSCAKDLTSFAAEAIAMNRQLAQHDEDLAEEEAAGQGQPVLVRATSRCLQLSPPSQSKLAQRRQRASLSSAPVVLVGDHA

O=C1N(Cc2cccc(Cl)c2)C[C@@H]2C[C@@H](c3cccn3-c3ccccn3)N3CCC[C@@]123
active: EC50 [1] 8.22 µM

O=C(NCc1ccc2c(c1)OCO2)c1cc2ncc(Br)cn2n1
active: IC50 [7] 56.5 µM | IC50 [8] 9.82 µM
inactive: IC50 [2] 35 µM | IC50 [3] 21.1 µM | IC50 [4] 37.4 µM | IC50 [5] 20.3 µM | IC50 [6] 73.1 µM
0.363 µM (not active): IC50 (Estrogen receptor beta)

O=C(/C=C\c1cccs1)N1CCN(Cc2ccc3c(c2)OCO3)CC1
active: CC50 [9] > 50 µM | CC50 [10] > 100 µM

N#CC(c1c(Cl)cnn(Cc2cccc3ccccc23)c1=O)c1coc2ccccc12 (stereo not drawn)
active: IC50 [11] 0.294 µM | IC50 [12] 0.294 µM

Cc1nn(-c2ccccc2)c(C)c1/C=N/NC(=O)c1cc(-c2ccccc2)[nH]n1
inconclusive: EC50 (BJ [15]) > 150 µM | EC50 [19] 0.659 µM | EC50 (BJ [20]) 37.5 µM
inactive: IC50 [13] > 49.8 µM | IC50 (Orexin receptor type 2 [18]) 20.6 µM | IC50 (Orexin receptor type 2 [21]) 18.8 µM | IC50 (CHO-K1) > 66.2 µM
active: EC50 (BJ [14]) 0.308 µM | CC50 [16] 8.77 µM | IC50 [17] 1.75 µM | IC50 [22] 3.67 µM

Cc1cc(C)cc(NC(=O)NC2=NN(c3ccccc3)C(=O)C2)c1
active: Ki [23] 3.16 µM | Ki [24] 3.98 µM

O=C1Nc2ccccc2Nc2cc(-c3ccncc3Cl)ccc21
inactive: Ki [25] > 10 µM
active: Ki [26] 1.26 µM | Ki [27] 1 µM | Ki [28] 0.251 µM | Ki [29] 0.0631 µM | Ki [30] 0.794 µM | Ki [31] 0.2 µM | Ki [32] 0.794 µM | Ki [33] 0.02 µM

C/N=C1/SC(=Cc2cc(C)n(Cc3ccc(F)cc3F)c2C)C(=O)N1C
active: EC50 [36] 0.0371 µM | EC50 [37] 0.287 µM
inactive: EC50 [34] 13.1 µM | EC50 [35] > 25 µM

CCOC(=O)c1c[nH]n2c(=O)cc(-c3ccncc3)nc12
inactive: Ki [38] > 7.94 µM | Ki [27] > 10 µM | Ki [30] > 10 µM | Ki [32] > 7.94 µM
active: Ki [25] 3.16 µM | Ki [26] 0.0501 µM | Ki [28] 0.316 µM | Ki [29] 0.0251 µM | Ki [33] 0.00501 µM
